Measured values reported in US11541028B2, “Peptide pharmaceuticals for treatment of NASH and other disorders” (Mederis Diabetes LLC, priority 2018, dated 2023).
Bridge positions count the residues as written; N and C are the ends. Square brackets hold non-standard residues; d marks the D form. Peptide text beside a SMILES is read from it. * marks the point of attachment. GlcA(1β-O-tetradecyl) = CCCCCCCCCCCCCCO[C@@H]1O[C@H](C(=O)*)[C@@H](O)[C@H](O)[C@H]1O; Aib = CC(C)(N)C(=O)O

Tests used:
db/db mice = test: Glucose-lowering activity in db/db mice; format: in vivo; conditions: for time for which elevated blood glucose level was reduced to the normal range: db/db mice, 250 nmol/kg subcutaneously at t=0 and 7 hr (FIG. 9)
Experimental: The 60 female db/db B6BKS (D) Leprdb/J (strain 000697) mice for this study were about 8-9 weeks old at arrival (Jackson Laboratory, Bar Harbor, Me.). […] One group of 8 female mice served as the vehicle control and received the vehicle, 0.2% BSA in saline, pH 7.4. One additional group of 8 female mice received the positive-control compound, liraglutide, at a dose level of 50 nmoles/kg. The test compounds, vehicle and positive-control compound were subcutaneously injected at a dose volume of 6 mL/kg on day 1 at about 0, 7 and 24 hours.
Clinical observations were conducted at receipt, prior to randomization, and daily from days 1 to 5. Body weights were measured and recorded at receipt, prior to randomization, and daily from days 1 to 5. Food consumption was measured and recorded daily from days 1 to 5. Blood samples for glucose analysis were collected pre-study (day −3) and at 0, 1, 2, 4, 8, 10, 24, 48, 72 and 96 hours following the first dose on day 1. At study termination all animals were euthanized, and the carcasses were discarded without further evaluation.

human GLP-1 receptor = biological target: T1, human GLP-1 receptor (Homo sapiens, UniProt P43220); test: DiscoveRx LeadHunter cellular assay, cAMP stimulation, GLP-1 receptor in CHO cells; format: cell-based; conditions: human GLP-1 receptor in CHO cells (DiscoveRx); read-out: EC50 cAMP GLP-1 R
T1 construct: host or cells: CHO cells

human glucagon receptor = biological target: T2, human glucagon receptor (Homo sapiens, UniProt P47871); test: DiscoveRx LeadHunter cellular assay, cAMP stimulation, glucagon receptor in CHO cells; format: cell-based
T2 construct: host or cells: CHO cells
T2 sequence (P47871 26-477): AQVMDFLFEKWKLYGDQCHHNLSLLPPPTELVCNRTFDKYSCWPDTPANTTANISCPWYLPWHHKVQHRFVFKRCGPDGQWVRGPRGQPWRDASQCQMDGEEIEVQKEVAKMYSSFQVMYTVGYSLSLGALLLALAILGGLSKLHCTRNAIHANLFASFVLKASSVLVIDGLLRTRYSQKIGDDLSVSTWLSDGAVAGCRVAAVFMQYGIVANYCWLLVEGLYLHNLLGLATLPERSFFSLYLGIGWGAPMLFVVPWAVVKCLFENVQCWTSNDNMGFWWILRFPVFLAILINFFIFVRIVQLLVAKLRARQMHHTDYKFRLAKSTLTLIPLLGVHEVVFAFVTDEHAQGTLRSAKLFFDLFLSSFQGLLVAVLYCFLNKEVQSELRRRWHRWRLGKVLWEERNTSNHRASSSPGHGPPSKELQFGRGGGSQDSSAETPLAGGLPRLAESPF

T1 sequence (P43220 24-463): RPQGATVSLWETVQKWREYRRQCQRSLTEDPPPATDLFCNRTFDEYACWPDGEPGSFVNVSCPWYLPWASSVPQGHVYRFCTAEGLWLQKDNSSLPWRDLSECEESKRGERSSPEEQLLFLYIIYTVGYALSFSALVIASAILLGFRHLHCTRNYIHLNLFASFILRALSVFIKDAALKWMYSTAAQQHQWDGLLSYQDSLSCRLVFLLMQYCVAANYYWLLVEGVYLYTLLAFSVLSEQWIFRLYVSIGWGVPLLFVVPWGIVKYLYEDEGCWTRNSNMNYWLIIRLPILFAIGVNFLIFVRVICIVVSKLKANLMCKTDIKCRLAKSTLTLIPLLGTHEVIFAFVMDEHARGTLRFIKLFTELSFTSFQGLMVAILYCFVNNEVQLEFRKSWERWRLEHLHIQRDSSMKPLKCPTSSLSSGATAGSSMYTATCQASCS

EC50 (human GLP-1 receptor)	EC50 (human glucagon receptor)	SMILES	time for which elevated blood glucose level was reduced to the normal range (db/db mice)	db/db Mice-Mean Blood Glucose (mg/dL) 0 hr (db/db mice; dose 250 nmole/kg sc)	db/db Mice-Mean Blood Glucose (mg/dL) 10 hr (db/db mice; dose 250 nmole/kg sc)	db/db Mice-Mean Blood Glucose (mg/dL) 24 hr (db/db mice; dose 250 nmole/kg sc)	db/db Mice-Mean Blood Glucose (mg/dL) 48 hr (db/db mice; dose 250 nmole/kg sc)	db/db Mice-Mean Blood Glucose (mg/dL) 0 hr (db/db mice; dose 50 nmole/kg sc)	db/db Mice-Mean Blood Glucose (mg/dL) 10 hr (db/db mice; dose 50 nmole/kg sc)	db/db Mice-Mean Blood Glucose (mg/dL) 24 hr (db/db mice; dose 50 nmole/kg sc)	db/db Mice-Mean Blood Glucose (mg/dL) 48 hr (db/db mice; dose 50 nmole/kg sc)
–	–	CCCCCCCCO[C@@H]1O[C@H](C(=O)NCCCC[C@H](NC(=O)[C@@H](NC(=O)[C@H](Cc2ccccc2)NC(=O)[C@H](CCC(=O)O)NC(=O)[C@@H]2CCCCNC(=O)CC[C@H](NC(=O)[C@H](CC(=O)O)NC(=O)[C@H](CC(C)C)NC(=O)[C@H](Cc3ccc(O)cc3)NC(=O)[C@H](CCCCN)NC(=O)[C@H](CO)NC(=O)[C@H](Cc3ccc(O)cc3)NC(=O)[C@H](CC(=O)O)NC(=O)[C@H](CO)NC(=O)[C@@H](NC(=O)[C@H](Cc3ccccc3)NC(=O)[C@@H](NC(=O)CNC(=O)[C@H](CCC(N)=O)NC(=O)C(C)(C)NC(=O)[C@@H](N)Cc3c[nH]cn3)[C@@H](C)O)[C@@H](C)O)C(=O)N[C@@H](CCC(N)=O)C(=O)N[C@@H](C)C(=O)N[C@@H](C)C(=O)N2)[C@@H](C)CC)C(=O)N[C@@H](Cc2c[nH]c3ccccc23)C(=O)N[C@@H](CC(C)C)C(=O)N[C@@H](CC(C)C)C(=O)N[C@@H](CCC(N)=O)C(=O)N[C@H](C(N)=O)[C@@H](C)O)[C@@H](O)[C@H](O)[C@H]1O [EU-A992]	around 72 hr	405 mg/dL	104 mg/dL	112 mg/dL	130 mg/dL	–	–	–	–
–	–	CCCCCCCCCCCO[C@@H]1O[C@H](C(=O)NCCCC[C@H](NC(=O)[C@@H](NC(=O)[C@H](Cc2ccccc2)NC(=O)[C@H](CCC(=O)O)NC(=O)[C@@H]2CCCCNC(=O)CC[C@H](NC(=O)[C@H](CC(=O)O)NC(=O)[C@H](CC(C)C)NC(=O)[C@H](Cc3ccc(O)cc3)NC(=O)[C@H](CCCCN)NC(=O)[C@H](CO)NC(=O)[C@H](Cc3ccc(O)cc3)NC(=O)[C@H](CC(=O)O)NC(=O)[C@H](CO)NC(=O)[C@@H](NC(=O)[C@H](Cc3ccccc3)NC(=O)[C@@H](NC(=O)CNC(=O)[C@H](CCC(N)=O)NC(=O)C(C)(C)NC(=O)[C@@H](N)Cc3c[nH]cn3)[C@@H](C)O)[C@@H](C)O)C(=O)N[C@@H](CCC(N)=O)C(=O)N[C@@H](C)C(=O)N[C@@H](C)C(=O)N2)[C@@H](C)CC)C(=O)N[C@@H](Cc2c[nH]c3ccccc23)C(=O)N[C@@H](CC(C)C)C(=O)N[C@@H](CC(C)C)C(=O)N[C@@H](CCC(N)=O)C(=O)N[C@H](C(N)=O)[C@@H](C)O)[C@@H](O)[C@H](O)[C@H]1O [EU-A1168]	around 72 hr	380 mg/dL	133 mg/dL	169 mg/dL	164 mg/dL	–	–	–	–
–	–	CCCCCCCCCCO[C@@H]1O[C@H](C(=O)NCCCC[C@H](NC(=O)[C@@H](NC(=O)[C@H](Cc2ccccc2)NC(=O)[C@H](CCC(=O)O)NC(=O)[C@@H]2CCCCNC(=O)CC[C@H](NC(=O)[C@H](CC(=O)O)NC(=O)[C@H](CC(C)C)NC(=O)[C@H](Cc3ccc(O)cc3)NC(=O)[C@H](CCCCN)NC(=O)[C@H](CO)NC(=O)[C@H](Cc3ccc(O)cc3)NC(=O)[C@H](CC(=O)O)NC(=O)[C@H](CO)NC(=O)[C@@H](NC(=O)[C@H](Cc3ccccc3)NC(=O)[C@@H](NC(=O)CNC(=O)[C@H](CCC(N)=O)NC(=O)C(C)(C)NC(=O)[C@@H](N)Cc3c[nH]cn3)[C@@H](C)O)[C@@H](C)O)C(=O)N[C@@H](CCC(N)=O)C(=O)N[C@@H](C)C(=O)N[C@@H](C)C(=O)N2)[C@@H](C)CC)C(=O)N[C@@H](Cc2c[nH]c3ccccc23)C(=O)N[C@@H](CC(C)C)C(=O)N[C@@H](CC(C)C)C(=O)N[C@@H](CCC(N)=O)C(=O)N[C@H](C(N)=O)[C@@H](C)O)[C@@H](O)[C@H](O)[C@H]1O [EU-A1167]	around 72 hr	379 mg/dL	171 mg/dL	117 mg/dL	113 mg/dL	–	–	–	–
–	–	CCCCCCCCCCCCO[C@@H]1O[C@H](CO[C@H]2O[C@H](C(=O)NCCCC[C@H](NC(=O)[C@@H](NC(=O)[C@H](Cc3ccccc3)NC(=O)[C@H](CCC(=O)O)NC(=O)[C@@H]3CCCCNC(=O)CC[C@H](NC(=O)[C@H](CC(=O)O)NC(=O)[C@H](CC(C)C)NC(=O)[C@H](Cc4ccc(O)cc4)NC(=O)[C@H](CCCCN)NC(=O)[C@H](CO)NC(=O)[C@H](Cc4ccc(O)cc4)NC(=O)[C@H](CC(=O)O)NC(=O)[C@H](CO)NC(=O)[C@@H](NC(=O)[C@H](Cc4ccccc4)NC(=O)[C@@H](NC(=O)CNC(=O)[C@H](CCC(N)=O)NC(=O)C(C)(C)NC(=O)[C@@H](N)Cc4c[nH]cn4)[C@@H](C)O)[C@@H](C)O)C(=O)N[C@@H](CCC(N)=O)C(=O)N[C@@H](C)C(=O)N[C@@H](C)C(=O)N3)[C@@H](C)CC)C(=O)N[C@@H](Cc3c[nH]c4ccccc34)C(=O)N[C@@H](CC(C)C)C(=O)N[C@@H](CC(C)C)C(=O)N[C@@H](CCC(N)=O)C(=O)N[C@H](C(N)=O)[C@@H](C)O)[C@H](O)[C@H](O)[C@H]2O)[C@@H](O)[C@H](O)[C@H]1O [EU-A1023]	–	508 mg/dL	264 mg/dL	194 mg/dL	375 mg/dL	507 mg/dL	310 mg/dL	355 mg/dL	375 mg/dL
0.316 nM	0.475 nM	CCCCCCCCCCCCCCO[C@@H]1O[C@H](C(=O)NCCCC[C@@H]2NC(=O)[C@@H](NC(=O)[C@H](CC(=O)O)NC(=O)[C@H](CC(C)C)NC(=O)[C@H](Cc3ccc(O)cc3)NC(=O)[C@H](CCCCN)NC(=O)[C@H](CO)NC(=O)[C@H](Cc3ccc(O)cc3)NC(=O)[C@H](CC(=O)O)NC(=O)[C@H](CO)NC(=O)[C@@H](NC(=O)[C@H](Cc3ccccc3)NC(=O)[C@@H](NC(=O)CNC(=O)[C@H](CCC(N)=O)NC(=O)C(C)(C)NC(=O)[C@@H](N)Cc3c[nH]cn3)[C@@H](C)O)[C@@H](C)O)CCC(=O)NCCCC[C@@H](C(=O)N[C@@H](CCC(=O)O)C(=O)N[C@@H](Cc3ccccc3)C(=O)N[C@H](C(=O)N[C@@H](CCC(=O)O)C(=O)N[C@@H](Cc3c[nH]c4ccccc34)C(=O)N[C@@H](CC(C)C)C(=O)N[C@@H](CC(C)C)C(=O)N[C@@H](CCC(N)=O)C(=O)N[C@H](C(N)=O)[C@@H](C)O)[C@@H](C)CC)NC(=O)[C@H](C)NC(=O)[C@H](C)NC2=O)[C@@H](O)[C@H](O)[C@H]1O [EU-A1841] (H-H[Aib]QGTFTSDYSKYLDEK(GlcA(1β-O-tetradecyl))AAKEFIEWLLQT-NH2; lactam 16-20; N-terminus assumed)	–	–	–	–	–	–	–	–	–
0.079 nM	0.204 nM	CCCCCCCCCCCCO[C@@H]1O[C@H](CO[C@H]2O[C@H](C(=O)N[C@@H](CCC(=O)NCCCC[C@H](NC(=O)[C@@H](NC(=O)[C@H](Cc3ccccc3)NC(=O)[C@H](CCC(=O)O)NC(=O)[C@@H]3CCCCNC(=O)CC[C@H](NC(=O)[C@H](CC(=O)O)NC(=O)[C@H](CC(C)C)NC(=O)[C@H](Cc4ccc(O)cc4)NC(=O)[C@H](CCCCN)NC(=O)[C@H](CO)NC(=O)[C@H](Cc4ccc(O)cc4)NC(=O)[C@H](CC(=O)O)NC(=O)[C@H](CO)NC(=O)[C@@H](NC(=O)[C@H](Cc4ccccc4)NC(=O)[C@@H](NC(=O)CNC(=O)[C@H](CCC(N)=O)NC(=O)C(C)(C)NC(=O)[C@@H](N)Cc4c[nH]cn4)[C@@H](C)O)[C@@H](C)O)C(=O)N[C@@H](CCC(N)=O)C(=O)N[C@@H](C)C(=O)N[C@@H](C)C(=O)N3)[C@@H](C)CC)C(=O)N[C@@H](Cc3c[nH]c4ccccc34)C(=O)N[C@@H](CC(C)C)C(=O)N[C@@H](CC(C)C)C(=O)N[C@@H](CCC(N)=O)C(=O)N[C@H](C(=O)O)[C@@H](C)O)C(=O)O)[C@H](O)[C@H](O)[C@H]2O)[C@@H](O)[C@H](O)[C@H]1O [EU-A1616]	–	–	–	–	–	–	–	–	–
0.011 nM	0.035 nM	CCCCCCCCCCCCO[C@@H]1O[C@H](C(=O)N[C@@H](CCC(=O)NCCCC[C@H](NC(=O)[C@@H](NC(=O)[C@H](Cc2ccccc2)NC(=O)[C@H](CCC(=O)O)NC(=O)[C@@H]2CCCCNC(=O)CC[C@H](NC(=O)[C@H](CC(=O)O)NC(=O)[C@H](CC(C)C)NC(=O)[C@H](Cc3ccc(O)cc3)NC(=O)[C@H](CCCCN)NC(=O)[C@H](CO)NC(=O)[C@H](Cc3ccc(O)cc3)NC(=O)[C@H](CC(=O)O)NC(=O)[C@H](CO)NC(=O)[C@@H](NC(=O)[C@H](Cc3ccccc3)NC(=O)[C@@H](NC(=O)CNC(=O)[C@H](CCC(N)=O)NC(=O)C(C)(C)NC(=O)[C@@H](N)Cc3c[nH]cn3)[C@@H](C)O)[C@@H](C)O)C(=O)N[C@@H](CCC(N)=O)C(=O)N[C@@H](C)C(=O)N[C@@H](C)C(=O)N2)[C@@H](C)CC)C(=O)N[C@@H](Cc2c[nH]c3ccccc23)C(=O)N[C@@H](CC(C)C)C(=O)N[C@@H](CC(C)C)C(=O)N[C@@H](CCC(N)=O)C(=O)N[C@H](C(N)=O)[C@@H](C)O)C(=O)O)[C@@H](O)[C@H](O)[C@H]1O [EU-A1717]	–	–	–	–	–	–	–	–	–
